Consider 1 molecule from patent US20170360795A1, “TREATMENT OF CANCERS USING PI3 KINASE ISOFORM MODULATORS” (INFINITY PHARMACEUTICALS, INC., priority 2013, published 2017).

SMILES strings stand for the structures.

The assay concerns serum cytokines/chemokines. As to the kind of experiment: serum cytokines/chemokines of patients by Milliplex immuno-assay. Type of assay: in vivo, human. The procedure:
Serum concentrations of a panel of human cytokines/chemokines were determined by Milliplex 96-well immuno-assay as described below.
the blood was allowed to clot for at least 30 minutes before centrifugation for 10 minutes at 1000×g. Serum was removed and either assayed immediately or aliquoted and stored at ≦−20° C. When using frozen samples, it is recommended to thaw the samples completely, mix well by vortexing and centrifuge prior to use in the assay to remove particulates.
1.0 mL deionized water was added to the bottle containing lyophilized Serum Matrix (catalog number MX HSM from MILLIPLEX® Map), and was allowed to be mixed will for at least 10 minutes for complete reconstitution.
200 μL of wash buffer was added into each well of the plate. The plate was sealed and mixed on a plate shaker for 10 minutes at room temperature (20-25° C.). The wash buffer was decanted and the residual amount was removed from all wells by inverting the plate and tapping it smartly onto absorbent towels several times. 25 μL of each standard or control was added into the appropriate wells. Assay buffer was used for 0 pg/mL standard (Background). 25 μL of assay buffer was added to the sample wells. 25 μL of appropriate matrix solution was added to the background, standards, and control wells. 25 μL of serum sample was added into the appropriate wells. 25 μL of the mixed or premixed Beads for the tested cytokines/chemokines was added to each well. The plate was sealed with a plate sealer, wrapped with foil and incubated with agitation on a plate shaker overnight at 4° C. or 2 hours at room temperature (20-25° C.). An overnight incubation (16-18 hr) may improve assay sensitivity for some analytes. […]
The plate was run on Luminex 200™, HTS, FLEXMAP 3D™ or MAGPIX® with xPONENT software. The Median Fluorescent Intensity (MFI) data was saved and analyzed using a 5-parameter logistic or spline curve-fitting method for calculating cytokine/chemokines concentrations in samples.
The serum analytes examined included: (1) human cytokines/chemokinds (EGF, CCL11, FGF-2, Flt-3 ligand, CX3CL1, G-CSF, GM-CSF, CXCL1, CXCL10, IFNα2, IFNγ, IL-α, IL-β, IL-1ra, IL-2, sIL-2Rα, IL-3, IL-4, IL-5, IL-6, IL-7, IL-8, IL-9, IL-10, IL-12 (p40), IL-12 (p70), IL-13, IL-15, IL-17, IL-1ra, IL-1α, IL-13, IL-2, IL-3, CCL2, CCL7, CCL22, CCL3, CCL4, PDGF-AA, PDGF-AB/BB, CCL5, sCD40L, sIL-2Rα, TGFα, TNFα, TNFβ, VEGF, CCL21, CXCL13, CCL27, CXCL5, CCL24, CCL26, CCL1, IL-16, IL-20, IL-21, IL-23, IL-28, IL-33, LIF, CCL8, CCL13, CCL15, SCF, CXCL12, CCL17, TPO, TRAIL, and TSLP); and (2) matrix metaloproteinases (MMP-1, MMP-2, MMP-3, MMP-7, MMP-9, MMP-10, MMP-12, MMP-13, TIMP-1, and TIMP-2). The change in serum concentration of an analyte was determined by comparing the pre- and post-treatment serum samples.

For the molecule `C[C@H](Nc1ncnc2[nH]cnc12)c1cc2cccc(Cl)c2c(=O)n1-c1ccccc1` [Compound 292], the “serum levels of CXCL13, CCL3, CCL4, CCL17, CCL22, TNFα and IL-12 (p40)” value (CLL patients, 25 mg BID, C1D8 and C2D1 vs C1D1 predose) is on record as “substantially reduced”. For the same molecule, the “serum concentrations of CXCL13, CCL4, CCL17, CCL22 and TNF-α” value (CLL/SLL and iNHL/MCL/FL patients) is recorded as “decreased serum concentrations”. For the same molecule, the “serum levels of CXCX13, CCL17, CCL22 and TNFα” value (iNHL patients, 28 days cycle, 25 mg BID) is given as “significant reduction”. For the setting “lymphoma patients, 25 mg BID, C1D8 and C2D1 vs C1D1”, the “serum levels of CXCL13, CCL17 and MMP-9” value was “substantially reduced”.
